Experimental data as given in patent US6528528B2 (Warner-Lambert Company, priority 1997, dated 2003).

biological target: T1, rabbit reticulocyte 15-LO (Oryctolagus cuniculus, UniProt P12530); assay: Rabbit Reticulocyte 15-LO Assay (h15LO); type: biochemical; details: 0.25 h; Table 2; @ 10 μM; read-out: h15LO % @ 10 μM
T1 construct: Fifteen-lipoxygenase was obtained from phenylhydrazine-treated rabbits and purified per the method of Rapoport; from tissue; host or cells: reticulocytes of phenylhydrazine-treated rabbits
T1 sequence (P12530 1-663): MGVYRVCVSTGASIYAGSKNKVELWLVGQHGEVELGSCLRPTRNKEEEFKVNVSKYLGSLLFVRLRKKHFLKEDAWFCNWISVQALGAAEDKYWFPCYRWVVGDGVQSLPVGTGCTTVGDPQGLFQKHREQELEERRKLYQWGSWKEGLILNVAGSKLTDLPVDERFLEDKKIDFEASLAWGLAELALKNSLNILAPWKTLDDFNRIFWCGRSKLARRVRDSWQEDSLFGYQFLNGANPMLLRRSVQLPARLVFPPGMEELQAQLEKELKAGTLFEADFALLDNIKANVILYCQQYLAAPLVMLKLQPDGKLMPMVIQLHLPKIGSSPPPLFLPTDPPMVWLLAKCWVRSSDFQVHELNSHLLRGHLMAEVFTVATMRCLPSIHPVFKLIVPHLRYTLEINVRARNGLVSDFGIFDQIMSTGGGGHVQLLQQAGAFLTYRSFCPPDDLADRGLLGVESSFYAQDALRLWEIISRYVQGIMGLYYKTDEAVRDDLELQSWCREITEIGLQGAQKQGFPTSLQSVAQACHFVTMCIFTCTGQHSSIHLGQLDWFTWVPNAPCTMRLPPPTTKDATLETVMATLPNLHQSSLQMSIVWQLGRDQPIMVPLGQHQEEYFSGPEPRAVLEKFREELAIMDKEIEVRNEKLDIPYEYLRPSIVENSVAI
Procedure: Rabbit Reticulocyte 15-LO Assay (h15LO)
The present 15-LO assay takes advantage of the ability of 15-LO to oxidize the fatty acid linoleic acid to the hydroperoxy fatty acid 13-(S)HPODE, resulting in the formation of a conjugated diene. The 15-LO inhibitors are incubated with 15-LO enzyme in the presence of linoleic acid substrate. The initial reaction is compared to an uninhibited (maximal) reaction to yield % inhibition. […] This prevents artificial nonenzyme lipid peroxidation and product breakdown in the sample. 13-HPODE is quantitated by comparing peak areas of individual samples with those from a standard curve generated using authentic 13-HODE. This assay is performed using 2U of rabbit reticulocyte 15-LO in the presence of 174 μM linoleic acid. The reaction is incubated for 15 minutes at 4° C. The total reaction volume is 100 μL in PBS containing 0.2% Na cholate.
Fifteen-lipoxygenase was obtained from phenylhydrazine-treated rabbits and purified per the method of Rapoport (Rapoport S. M., Schewe T., Wiesner R., et al. The lipoxygenase of reticulocytes. Purification, characterization, and biological dynamics of the lipoxygenase; its identity with the respiratory inhibitors of the reticulocyte. European Journal of Biochemistry, 1979;96:545-561). The following chemicals were purchased and used as received: linoleic acid (NUJCheck Prep), 13-HPODE (Biomol Research Labs), sodium cholate (Sigma), trimethyl phosphite (Fluka Chemicals).

inhibition at 10 µM | Structure (SMILES)
66% | O=C(Nc1ccccc1)c1cc(NC(=S)Nc2cc(Cl)cc(Cl)c2)ccc1F [Example 101, 5-[3-(3,5-Dichlorophenyl)-thioureido]-2-fluoro-N-phenyl-benzamide]

same assay, conditions: Table 2; 2U rabbit reticulocyte 15-LO, 174 μM linoleic acid, 15 minutes at 4° C.

Structure (SMILES) | IC50
Cc1ccc(C(=O)Nc2ccccc2)cc1Nc1ccccc1 [Example 38, 3-Phenylamino-4-methyl-N-phenyl-benzamide] | > 3000 nM
COc1ccc(C(=O)Nc2ccc(F)c(F)c2)cc1NS(=O)(=O)c1cc(Cl)cc(Cl)c1 [Example 116, 3-(3,5-Dichloro-benzenesulfonylamino)-4-methoxy-N-(3,4-difluorophenyl)-benzamide] | 20 nM
CCCCCCCCCCS(=O)(=O)Nc1cc(C(=O)Nc2ccccc2)ccc1OC [Example 179, 3-(Decane-1-sulfonylamino)-4-methoxy-N-phenyl-benzamide] | 7 nM
COc1ccc(NC(=O)c2ccc(Cl)c(Cl)c2)cc1NS(=O)(=O)c1ccc(C)cc1 [Example 197, 3,4-Dichloro-N-[4-methoxy-3-(toluene-4-sulfonylamino)-phenyl]-benzamide] | 36 nM

The next lines start with the values.

IC50 | Structure (SMILES)
385 nM | COc1ccc(C(=O)Nc2ccccc2)cc1NCc1cccc(C)c1 [Example 273, 4-Methoxy-3-(3-methyl-benzylamino)-N-phenyl-benzamide]
304 nM | COc1ccc(C(=O)Nc2ccccc2)cc1NCc1ccc(O)cc1 [Example 272, 3-(4-Hydroxy-benzylamino)-4-methoxy-N-phenyl-benzamide]
293 nM | COc1ccc(C(=O)Nc2ccccc2)cc1NS(=O)(=O)c1ccc(C(=O)O)cc1 [Example 183, 4-(2-Methoxy-5-phenylcarbamoyl-phenylsulfamoyl)-benzoic Acid]
22 nM | COC(=O)c1cccc(NC(=S)Nc2cc(C(=O)Nc3ccccc3)ccc2OC)c1 [Example 161, 3-[3-(2-Methoxy-5-phenylcarbamoyl-phenyl)-thioureido]-benzoic Acid Methyl Ester]
213 nM | COc1ccc(C(=O)Nc2ccccc2)cc1NCc1ccc(N(C)C)cc1 [Example 268, 3-(4-Dimethylamino-benzylamino)-4-methoxy-N-phenyl-benzamide]
24 nM | COc1ccc(C(=O)Nc2ccc(F)c(F)c2)cc1NCc1cccc(O)c1 [Example 210, 3-(3-Hydroxy-benzylamino)-4-methoxy-N-(3,4-difluoro-phenyl)-benzamide]
79 nM | COc1ccc(C(=O)Nc2ccccc2)cc1NCc1cccc(O)c1 [Example 213, 3-(3-Hydroxy-benzylamino)-4-methoxy-N-phenyl-benzamide]
391 nM | COc1ccc(C(=O)Nc2ccccc2)cc1NCc1ccc(F)c(F)c1 [Example 274, 3-(3,4-Difluoro-benzylamino)-4-methoxy-N-phenyl-benzamide]
10 nM | COc1ccc(C(=O)Nc2ccccc2)cc1Nc1cccc(C(F)(F)F)c1 [Example 30, 3-(3-Trifluoromethyl-phenylamino)-4-methoxy-N-phenyl-benzamide]
166 nM | COc1ccc(C(=O)Nc2ccccc2)cc1NCc1cccc(F)c1F [Example 219, 3-(2,3-Difluoro-benzylamino)-4-methoxy-N-phenyl-benzamide]

same assay, conditions: Table 2; concentration not given

Structure (SMILES) | h15LO, value given as bare %
O=C(Nc1ccc(F)c(NC(=S)Nc2cc(Cl)cc(Cl)c2)c1)c1ccc(F)c(F)c1 [Example 170, N-{3-[3-(3,5-Dichloro-phenyl)-thioureido]-4-fluoro-phenyl}-3,4-difluoro-benzamide] | 99.53%
COc1ccc(NC(=O)c2ccc(F)c(F)c2)cc1NS(=O)(=O)c1ccc(C#N)cc1 [Example 204, 3,4-Difluoro-N-[3-(4-cyano-benzenesulfonylamino)-4-methoxy-phenyl]-benzamide] | 89.54%
COc1ccc(C(=O)Nc2ccc(F)cc2)cc1NS(=O)(=O)c1ccc([N+](=O)[O-])cc1 [Example 191, 4-Methoxy-3-(4-nitro-benzenesulfonylamino)-N-(4-fluoro-phenyl)-benzamide] | 96.99%
COc1ccc(NC(=O)Nc2ccc(Cl)c(Cl)c2)cc1NS(=O)(=O)c1cccs1 [Example 207, Thiophene-2-sulfonic acid {5-[3-(3,4-dichloro-phenyl)-ureido]-2-methoxy-phenyl}-amide] | 41.59%
COc1ccc(C(=O)Nc2ccc(F)cc2)cc1NS(=O)(=O)c1cccc(C#N)c1 [Example 189, 3-(3-Cyano-benzenesulfonylamino)-4-methoxy-N-(4-fluoro-phenyl)-benzamide] | 97.17%
COc1ccc(C(=O)Nc2ccc(F)c(F)c2)cc1NS(=O)(=O)c1cccc(N)c1 [Example 185, 3-(3-Amino-benzenesulfonylamino)-4-methoxy-N-(3,4-difluoro-phenyl)-benzamide] | 99.71%
O=C(Nc1ccc(F)c(NS(=O)(=O)c2cccs2)c1)c1ccc(F)c(F)c1 [Example 206, 3,4-Difluoro-N-[4-fluoro-3-(thiophene-2-sulfonylamino)-phenyl]-benzamide] | 45.56%
COc1ccc(NC(=O)Nc2ccc(Cl)c(Cl)c2)cc1NC(=S)Nc1cccc(C(=O)O)c1 [Example 173, 3-(3-{5-[3-(3,4-Dichloro-phenyl}-ureido]-2-methoxy-phenyl)-thioureido)-benzoic Acid] | 55%
O=C(Nc1ccc(F)cc1)c1ccc(OC(F)(F)F)c(Nc2cccc(C(F)(F)F)c2)c1 [Example 159, 4-Trifluoromethoxy-3-(3-trifluoromethyl-phenylamino)-N-(4-fluoro-phenyl)-benzamide] | 44.58%
COc1ccc(NC(=O)c2ccc(F)c(F)c2)cc1NS(=O)(=O)c1ccc([N+](=O)[O-])cc1 [Example 202, 3,4-Difluoro-N-[4-methoxy-3-(4-nitro-benzenesulfonylamino)-phenyl]-benzamide] | 93.85%
COC(=O)c1cccc(NC(=S)Nc2cc(NC(=O)Nc3ccc(Cl)c(Cl)c3)ccc2OC)c1 [Example 172, 3-(3-{5-[3-(3,4-Dichloro-phenyl)-ureido]-2-methoxy-phenyl}-thioureido)-benzoic Acid Methyl Ester] | 89.03%

Other lines, results leading:

h15LO, value given as bare % | Structure (SMILES)
58.44% | CCCCc1ccc(CNc2cc(C(=O)Nc3ccccc3)ccc2OC)cc1 [Example 239, 3-(4-Butyl-benzylamino)-4-methoxy-N-phenyl-benzamide]
80.36% | COc1ccc(C(=O)Nc2ccccc2)cc1NCc1ccc(C(C)(C)C)cc1 [Example 232, 3-(4-tert-Butyl-benzylamino)-4-methoxy-N-phenyl-benzamide]
67.26% | CCCOc1ccc(CNc2cc(C(=O)Nc3ccccc3)ccc2OC)cc1 [Example 235, 4-Methoxy-3-(4-propoxy-benzylamino)-N-phenyl-benzamide]
95.74% | COc1ccc(C(=O)Nc2ccc(F)c(F)c2)cc1NCc1ccccc1 [Example 227, 3-Benzylamino-4-methoxy-N-(3,4-difluoro-phenyl)-benzamide]
49.19% | COc1ccc(C(=O)Nc2ccccc2)cc1NCc1ccc(C(C)C)cc1 [Example 243, 3-(4-Isopropyl-benzylamino)-4-methoxy-N-phenyl-benzamide]
96.21% | CCN(CC)c1ccc(CNc2cc(C(=O)Nc3ccc(F)c(F)c3)ccc2OC)cc1 [Example 226, 3-(4-Diethylamino-benzylamino)-4-methoxy-N-(3,4-difluoro-phenyl)-benzamide]
